Patent publication US20100330126A1, “Attenuated malaria blood-stage vaccine” (priority 2009, published 2010)

Legend:
Assay type in all cases: biochemical
P. yoelii PNP = test: Phosphorylase activity assay, kinetic constants of recombinant PyPNP; conditions: for Km / kcat: substrate of P. yoelii PNP, 50 mM KPO4, pH 7.4
Text: Expression, Purification, and Characterization of PyPNP. Recombinant PyPNP was expressed with a C-terminal 6×His tag and the c-myc epitope and purified from induced bacterial culture by nickel affinity chromatography under native conditions. Like PfPNP, recombinant PyPNP elutes from gel filtration chromatography as a single peak consisting of homohexameric protein (≈180 kDa; data not shown). On a denatured SDS-PAGE gel, the protein ran as a single band with a molecular mass of 29.94 kDa. […] The catalytic efficiencies (kcat/Km) of PyPNP for these substrates were very similar to those observed in PfPNP (Table 2).
Cloning and Expression of P. yoelii PNP. PyPNP was identified as a protein of 244 amino acids and 26.943 kDa by protein sequence homology to PfPNP (gene PY04622; PlasmoDB.org). The PyPNP open reading frame (ORF) sequence was amplified by PCR from genomic DNA of P. yoelii strain YM with primers PyPNP-F (5′-[…]-3′) (SEQ ID NO:8) and PyPNP-R (5′-[…]-3′) (SEQ ID NO:9). The 729 by PCR product was ligated into a pTrcHis2-TOPO vector (Invitrogen) and expressed in E. coli strain TOP 10. Recombinant PyPNP with a C-terminal 6×His tag and the c-myc epitope was induced with 1 mM IPTG at 37° C. for 10 h and purified by nickel chromatography. The purified PyPNP was >95% homogeneous based on denaturing polyacrylamide gel electrophoresis and staining with Coomassie blue. Protein concentration was measured by Bradford protein assay (Bio-Rad).
(§1) Enzymatic Assays and Determination of Kinetic Constants. All phosphorylase activity assays were performed with purified enzyme in 50 mM KPO4, pH 7.4 as described^1. Briefly, phosphorylysis of inosine, 2′-deoxyinosine, and 5′-methylthioinosine was measured in a coupled assay with 115 milliunits/ml xanthine oxidase to convert hypoxanthine into uric acid. Uric acid formation was followed by spectrophotometric measurement at 293 nm (E293=12.9 mM^−1 cm^−1). Phosphorylysis of guanosine to guanine was monitored by measuring the disappearance of guanosine at 258 nm (E258=5.2 mM^−1 cm^−1). Adenosine and 5′-methylthioadenosine phosphorylase activities were measured by following the disappearance of the substrate at 265 nm (E256=1.9 mM^−1 cm^−1). Uridine phosphorylase activity was measured by following the conversion of uridine to uracil at 272 nm (E260=2.9 mM^−1 cm^−1). The Michaelis constant Km was determined as the substrate concentration at ½ the maximum velocity. The kcat was determined for each substrate by fits of substrate saturation data to the Michaelis-Menten equation. Values for kcat assume one catalytic site per subunit and are expressed as moles of product per second per mole of subunit.

P. falciparum PNP = molecular target: T1, P. falciparum PNP (Plasmodium falciparum, UniProt Q8I3X4); test: Phosphorylase activity assay, kinetic constants of PfPNP; conditions: substrate of P. falciparum PNP
T1 sequence (Q8I3X4 1-245): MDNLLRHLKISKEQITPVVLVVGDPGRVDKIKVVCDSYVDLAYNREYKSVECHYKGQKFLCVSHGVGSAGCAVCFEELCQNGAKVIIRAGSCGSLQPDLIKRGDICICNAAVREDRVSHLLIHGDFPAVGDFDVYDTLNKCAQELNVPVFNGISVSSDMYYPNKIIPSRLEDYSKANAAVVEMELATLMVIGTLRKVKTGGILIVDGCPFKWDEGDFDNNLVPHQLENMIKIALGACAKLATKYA
Description: as §1

[1] = substrate: OC[C@H]1O[C@@H](n2cnc3c(O)ncnc32)[C@H](O)[C@@H]1O; test: as above; conditions: other: substrate of P. falciparum PNP; pH 7.4
Description: as §1

[2] = substrate: OC[C@H]1O[C@@H](n2cnc3c(O)ncnc32)C[C@@H]1O; test: as above; conditions: other: substrate of P. falciparum PNP; pH 7.4
Description: as §1

[3] = substrate: Nc1nc2c(ncn2[C@@H]2O[C@H](CO)[C@@H](O)[C@H]2O)c(=O)[nH]1; test: as above; conditions: other: substrate of P. falciparum PNP; pH 7.4
Description: as §1

## OC[C@H]1O[C@@H](n2cnc3c(O)ncnc32)[C@H](O)[C@@H]1O [Inosine]
P. yoelii PNP
  Km: 8.6 ± 1.5 µM
  kcat: 3.5 ± 0.1 s⁻¹

## O=c1ccn([C@@H]2O[C@H](CO)[C@@H](O)[C@H]2O)c(=O)[nH]1 [uridine]
P. yoelii PNP; data not shown
  PyPNP activity with substrate: no detectable activity

## CSc1ncnc2c1ncn2[C@@H]1O[C@H](CO)[C@@H](O)[C@H]1O [Methylthioinosine]
P. falciparum PNP
  Km: 10.8 ± 0.9 µM
  kcat: 2.6 ± 0.8 s⁻¹
P. yoelii PNP
  Km: 5 ± 0.4 µM
  kcat: 3.4 ± 0.1 s⁻¹

## Nc1nc2c(ncn2[C@@H]2O[C@H](CO)[C@@H](O)[C@H]2O)c(=O)[nH]1 [Guanosine]
P. yoelii PNP
  Km: 8.9 ± 1.6 µM
  kcat: 3.8 ± 0.2 s⁻¹

## OC[C@H]1O[C@@H](n2cnc3c(O)ncnc32)C[C@@H]1O [2′-deoxyinosine]
P. yoelii PNP
  Km: 79 ± 10 µM
  kcat: 1.2 ± 0.1 s⁻¹

B1: P. falciparum PNP (Plasmodium falciparum 3D7) (protein)
chain: T1 sequence (Q8I3X4 1-245)
[1]
  Km: 4.7 ± 0.9 µM
  kcat: 1.1 ± 0.2 s⁻¹
  kcat/Km: 230000 M⁻¹ s⁻¹
[2]
  Km: 91 ± 35 µM
  kcat: 0.9 ± 0.3 s⁻¹
  kcat/Km: 9800 M⁻¹ s⁻¹
[3]
  Km: 9.4 ± 1.2 µM
  kcat: 2.6 ± 0.5 s⁻¹
  kcat/Km: 280000 M⁻¹ s⁻¹
